# Reference: patent US9452980B2, “Substituted benzamides” (Hoffmann-La Roche Inc., priority 2009, dated 2016)
# Counter-ions that a name gives are not always drawn. Like-named read-outs stand apart in the source and are kept apart here.
# Experiments:
# rat TAAR1 = rat TAAR1 (Rattus norvegicus (Rat), UniProt Q923Y9); assay: Radioligand binding assay on rat TAAR1
# How it was run: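 Membranes from HEK293 cells stably expressing rat TAAR1, with Kd checked per batch by saturation. Competition with ³H-(S)-4-[(ethyl-phenyl-amino)-methyl]-4,5-dihydro-oxazol-2-ylamine, compounds 10 pM–10 μM in duplicate, 1 hr at 4 °C. Filtration then scintillation counting; nonspecific binding defined with 10 μM unlabeled ligand.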
# mouse TAAR1 = mouse TAAR1 (Mus musculus (Mouse), UniProt Q923Y8); assay: Radioligand binding assay on mouse TAAR1
# mouse TAAR1, sequence (Q923Y8 whole entry): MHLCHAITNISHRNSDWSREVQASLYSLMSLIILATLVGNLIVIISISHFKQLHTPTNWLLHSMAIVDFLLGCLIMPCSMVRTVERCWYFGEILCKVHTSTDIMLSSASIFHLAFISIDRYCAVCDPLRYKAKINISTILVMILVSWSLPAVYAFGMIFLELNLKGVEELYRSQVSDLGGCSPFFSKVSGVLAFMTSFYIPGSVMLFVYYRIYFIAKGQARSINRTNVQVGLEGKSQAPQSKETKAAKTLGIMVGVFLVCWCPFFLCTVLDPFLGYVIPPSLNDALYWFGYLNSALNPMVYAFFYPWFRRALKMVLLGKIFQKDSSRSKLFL
# How it was run: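 Membranes were from HEK293 cells stably expressing mouse TAAR1. Compounds from 10 pM to 10 μM, in duplicate, competed with [3H]-(S)-4-[(ethyl-phenyl-amino)-methyl]-4,5-dihydro-oxazol-2-ylamine for 1 h at 4 °C. Nonspecific binding was defined with 10 μM unlabelled ligand, and bound radioactivity was read by filtration and scintillation.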
# [1] = rat TAAR1, HEK-293 membranes, second value of cell mouse/rat, read-out: Ki (μM) rat
# [2] = mouse TAAR1, HEK-293 membranes, first value of cell mouse/rat, read-out: Ki (μM) mouse
# rat TAAR1, sequence (Q923Y9 whole entry): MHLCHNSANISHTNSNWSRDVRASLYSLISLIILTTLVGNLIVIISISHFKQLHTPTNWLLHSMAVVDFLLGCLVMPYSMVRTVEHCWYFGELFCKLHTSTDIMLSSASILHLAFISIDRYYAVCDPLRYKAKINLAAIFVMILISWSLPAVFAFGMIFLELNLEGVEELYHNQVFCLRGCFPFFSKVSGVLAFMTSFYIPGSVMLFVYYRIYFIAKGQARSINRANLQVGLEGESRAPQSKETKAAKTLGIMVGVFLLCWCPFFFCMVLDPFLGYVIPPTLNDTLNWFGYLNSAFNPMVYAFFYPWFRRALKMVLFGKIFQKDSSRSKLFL
Compound,Ki (rat TAAR1; [1]),Ki (mouse TAAR1; [2]),Ki (mouse TAAR1; read-out: Ki (μM) mouse),other results
"O=C(Nc1ccc(C2CNCCO2)cc1)c1cncc(Cl)c1 (racemic) [Example 210, (RS)-5-chloro-N-(4-(morpholin-2-yl)phenyl)nicotinamide hydrochloride]",0.0062 µM,0.0436 µM,–,–
"CN(C(=O)Oc1ccccc1)c1ccc(C2CCNC2)cc1 (racemic) [Example 22, (RS)-Methyl-(4-pyrrolidin-3-yl-phenyl)-carbamic acid phenyl ester]",–,–,–,Ki (rat TAAR1): 2.37 µM; Ki (mouse TAAR1): 0.526 µM
"O=C(Nc1ccc(C(=O)C2CCNC2)cc1)c1ccc(Cl)cc1 (racemic) [Example 136, (RS)-4-Chloro-N-[4-(pyrrolidine-3-carbonyl)-phenyl]-benzamide hydrochloride]",–,–,–,Ki (rat TAAR1): 0.0008 µM; Ki (mouse TAAR1): 0.153 µM
"O=C(Nc1ccc([C@@H]2CCCNC2)cc1)c1ccc(Cl)nc1 [Example 162, (S)-6-Chloro-N-(4-(piperidin-3-yl)phenyl)nicotinamide hydrochloride]",0.0092 µM,–,0.231 µM,–
"O=C(Nc1ccccc1)Nc1ccc(C2CCNC2)cc1 (racemic) [Example 6, (RS)-1-Phenyl-3-(4-pyrrolidin-3-yl-phenyl)-urea hydrochloride]",–,0.0032 µM,–,Ki (rat TAAR1; read-out: Ki (μM) rat): 0.0295 µM
"O=C(Nc1ccc([C@H]2CCCNC2)cc1)c1ccc(Cl)c(Cl)c1 [Example 150, 3,4-Dichloro-N—((R)-4-piperidin-3-yl-phenyl)-benzamide hydrochloride]",0.0004 µM,–,0.002 µM,–
"CSc1ccc(C(=O)Nc2ccc([C@@H]3CCCNC3)cc2)cn1 [Example 244, (S)-6-(Methylthio)-N-(4-(piperidin-3-yl)phenyl)nicotinamide hydrochloride]",0.0049 µM,–,0.268 µM,–
"CCc1ccc(C(=O)Nc2ccc(C3CNCCO3)cc2)cc1 (racemic) [Example 198, (RS)-4-Ethyl-N-(4-(morpholin-2-yl)phenyl)benzamide hydrochloride]",0.0028 µM,0.0147 µM,–,–
"C[C@@H]1CNC[C@H](c2ccc(NC(=O)c3ccc(Cl)nc3)cc2)O1 [Example 310, 6-Chloro-N-(4-((2S,6R)-6-methylmorpholin-2-yl)phenyl)nicotinamide hydrochloride]",0.0108 µM,–,0.0476 µM,–
"CCOc1ccc(C(=O)Nc2ccc(CCC3CCCN3)cc2)nc1 (racemic) [Example 172, (RS)-5-Ethoxy-N-(4-(2-(pyrrolidin-2-yl)ethyl)phenyl)picolinamide hydrochloride]",0.0077 µM,0.113 µM,–,–
"Cc1cc(C(=O)Nc2ccc(C3CNCCO3)cc2)cc(Cl)n1 (racemic) [Example 273, (RS)-2-Chloro-6-methyl-N-(4-(morpholin-2-yl)phenyl)isonicotinamide hydrochloride]",0.008 µM,–,0.0343 µM,–
"O=C(Nc1ccc(C2CCNC2)cc1)Nc1cccc2cccnc12 (racemic) [Example 81, (RS)-1-(4-Pyrrolidin-3-yl-phenyl)-3-quinolin-8-yl-urea]",0.0124 µM,0.0227 µM,–,–
"O=C(Nc1ccc(CCC2CCCN2)cc1)c1ccc(Cl)c(Cl)c1 (racemic) [Example 154, (RS)-3,4-Dichloro-N-[4-(2-pyrrolidin-2-yl-ethyl)-phenyl]-benzamide hydrochloride]",0.0002 µM,0.0082 µM,–,–
"Cc1ccc(C(=O)Nc2ccc(C3CCNC3)cc2)cc1 (racemic) [Example 182, (RS)-4-Methyl-N-(4-(pyrrolidin-3-yl)phenyl)benzamide hydrochloride]",0.0025 µM,–,0.0253 µM,–
"CC(CO)(CCl)COc1ccc(C(=O)Nc2ccc(C3CNCCO3)cc2)cc1 (racemic) [Example 220, (RS)-4-(2-Chloromethyl-3-hydroxy-2-methyl-propoxy)-N-(4-morpholin-2-yl-phenyl)-benzamide]",0.0024 µM,0.0435 µM,–,–
"CC(C(=O)Nc1ccc(C2CCNC2)cc1)c1cccc(C(=O)c2ccccc2)c1 (racemic) [Example 64, (RS)-2-(3-Benzoyl-phenyl)-N—((RS)-4-pyrrolidin-3-yl-phenyl)-propionamide]",0.0215 µM,0.124 µM,–,–
"CC(C(=O)Nc1ccc(C2CCCNC2)cc1)c1cccc(OC(F)(F)F)c1 (racemic) [Example 105, (RS)—N—((RS)-4-Piperidin-3-yl-phenyl)-2-(3-trifluoromethoxy-phenyl)-propionamide]",0.0135 µM,0.0296 µM,–,–
"Cc1ccc(C(=O)Nc2ccc([C@H]3CCCNC3)cc2)cc1C [Example 260, (R)-3,4-Dimethyl-N-(4-(piperidin-3-yl)phenyl)benzamide hydrochloride]",0.0012 µM,–,0.016 µM,–
"O=C(Nc1ccc([C@@H]2CCCNC2)cc1)c1ccc(Br)nc1 [Example 252, (S)-6-Bromo-N-(4-(piperidin-3-yl)phenyl)nicotinamide 2,2,2-trifluoroacetate]",0.0044 µM,0.0783 µM,–,–
"O=C(Nc1ccc(C2CCNC2)cc1)c1ccc2ccccc2n1 (racemic) [Example 84, (RS)-Quinoline-2-carboxylic acid (4-pyrrolidin-3-yl-phenyl)-amide hydrochloride]",0.0381 µM,0.008 µM,–,–
"O=C(Nc1ccc([C@@H]2CCCNC2)cc1)c1cnc(Cl)cn1 [Example 238, 5-Chloro-pyrazine-2-carboxylic acid ((S)-4-piperidin-3-yl-phenyl)-amide hydrochloride]",0.0056 µM,–,1.12 µM,–
"Cc1ccc(C(=O)Nc2ccc(C3CNCCO3)cc2)cc1 (racemic) [Example 189, (RS)-4-Methyl-N-(4-(morpholin-2-yl)phenyl)benzamide hydrochloride]",0.0016 µM,0.0343 µM,–,–
"CC(C(=O)Nc1ccc(C2CCCNC2)cc1)c1ccc(Cl)cc1 (racemic) [Example 103, (RS)-2-(4-Chloro-phenyl)-N—((RS)-4-piperidin-3-yl-phenyl)-propionamide]",0.0646 µM,0.705 µM,–,–
"O=C(Nc1ccc([C@@H]2CNCCO2)cc1)Nc1ccc(C(F)(F)F)cc1 [Example 311, (R)-1-(4-(Morpholin-2-yl)phenyl)-3-(4-(trifluoromethyl)phenyl)urea hydrochloride]",–,0.0005 µM,–,Ki (rat TAAR1; read-out: Ki (μM) rat): 0.0014 µM
"O=C(Nc1ccc(C2CCNC2)cc1)c1ccc(OCC(F)(F)F)nc1 (racemic) [Example 89, (RS)—N-(4-Pyrrolidin-3-yl-phenyl)-6-(2,2,2-trifluoro-ethoxy)-nicotinamide hydrochloride]",0.006 µM,0.0059 µM,–,–
"O=C(Nc1ccc(Cl)cc1)Nc1ccc(CCC2CCNC2)cc1 (racemic) [Example 116, (RS)-1-(4-Chloro-phenyl)-3-[4-(2-pyrrolidin-3-yl-ethyl)-phenyl]-urea hydrochloride]",0.0014 µM,0.0608 µM,–,–
"O=C(Nc1ccc(CCC2CCCCN2)cc1)c1ccc(Cl)nc1 (racemic) [Example 173, (RS)-6-Chloro-N-(4-(2-(piperidin-2-yl)ethyl)phenyl)nicotinamide hydrochloride]",0.0218 µM,0.824 µM,–,–
"O=C(Nc1ccc([C@H]2CCCNC2)cc1)c1cccc(C(F)(F)F)c1 [Example 261, (R)—N-(4-(Piperidin-3-yl)phenyl)-3-(trifluoromethyl)benzamide hydrochloride]",–,0.0027 µM,–,Ki (rat TAAR1; read-out: Ki (μM) rat): 0.0015 µM
"Cc1cc(C(=O)Nc2ccc([C@@H]3CCCNC3)cc2)ccc1Cl [Example 226, (S)-4-Chloro-3-methyl-N-(4-(piperidin-3-yl)phenyl)benzamide hydrochloride]",–,–,0.0555 µM,Ki (rat TAAR1; read-out: Ki (μM) rat): 0.001 µM
